{"source": "ChEMBL document CHEMBL5257096", "about": "“Accelerating Drug Discovery: Synthesis of Complex Chemotypes via Multicomponent Reactions” (ACS Med Chem Lett, 2023)", "target": "Isocitrate dehydrogenase [NADP] cytoplasmic (Homo sapiens, UniProt O75874, R132H)", "sequence (O75874 2-414 R132H limits assumed)": "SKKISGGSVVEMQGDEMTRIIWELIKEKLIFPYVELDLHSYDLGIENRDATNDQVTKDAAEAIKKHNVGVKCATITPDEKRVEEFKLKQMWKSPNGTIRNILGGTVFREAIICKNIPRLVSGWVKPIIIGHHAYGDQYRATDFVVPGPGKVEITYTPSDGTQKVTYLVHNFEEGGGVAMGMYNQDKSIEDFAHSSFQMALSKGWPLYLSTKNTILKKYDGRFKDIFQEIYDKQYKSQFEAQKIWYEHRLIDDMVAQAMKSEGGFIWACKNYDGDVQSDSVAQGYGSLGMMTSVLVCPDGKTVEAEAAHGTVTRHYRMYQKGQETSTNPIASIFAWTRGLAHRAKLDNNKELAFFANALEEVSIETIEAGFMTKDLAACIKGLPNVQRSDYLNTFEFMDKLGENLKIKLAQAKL", "test": "Inhibition of IDH1 R132H mutant (unknown origin)", "data": [{"smiles": "O=C(NC1CCCCC1)[C@@H](c1ccccc1)N(C(=O)Cc1cccs1)c1cccc(F)c1", "values": [{"measurement": "IC50", "value": "> 11", "unit": "µM"}]}]}
